Some results are limits rather than exact numbers.

Chain of human Cav2.2 (Q00975 whole entry): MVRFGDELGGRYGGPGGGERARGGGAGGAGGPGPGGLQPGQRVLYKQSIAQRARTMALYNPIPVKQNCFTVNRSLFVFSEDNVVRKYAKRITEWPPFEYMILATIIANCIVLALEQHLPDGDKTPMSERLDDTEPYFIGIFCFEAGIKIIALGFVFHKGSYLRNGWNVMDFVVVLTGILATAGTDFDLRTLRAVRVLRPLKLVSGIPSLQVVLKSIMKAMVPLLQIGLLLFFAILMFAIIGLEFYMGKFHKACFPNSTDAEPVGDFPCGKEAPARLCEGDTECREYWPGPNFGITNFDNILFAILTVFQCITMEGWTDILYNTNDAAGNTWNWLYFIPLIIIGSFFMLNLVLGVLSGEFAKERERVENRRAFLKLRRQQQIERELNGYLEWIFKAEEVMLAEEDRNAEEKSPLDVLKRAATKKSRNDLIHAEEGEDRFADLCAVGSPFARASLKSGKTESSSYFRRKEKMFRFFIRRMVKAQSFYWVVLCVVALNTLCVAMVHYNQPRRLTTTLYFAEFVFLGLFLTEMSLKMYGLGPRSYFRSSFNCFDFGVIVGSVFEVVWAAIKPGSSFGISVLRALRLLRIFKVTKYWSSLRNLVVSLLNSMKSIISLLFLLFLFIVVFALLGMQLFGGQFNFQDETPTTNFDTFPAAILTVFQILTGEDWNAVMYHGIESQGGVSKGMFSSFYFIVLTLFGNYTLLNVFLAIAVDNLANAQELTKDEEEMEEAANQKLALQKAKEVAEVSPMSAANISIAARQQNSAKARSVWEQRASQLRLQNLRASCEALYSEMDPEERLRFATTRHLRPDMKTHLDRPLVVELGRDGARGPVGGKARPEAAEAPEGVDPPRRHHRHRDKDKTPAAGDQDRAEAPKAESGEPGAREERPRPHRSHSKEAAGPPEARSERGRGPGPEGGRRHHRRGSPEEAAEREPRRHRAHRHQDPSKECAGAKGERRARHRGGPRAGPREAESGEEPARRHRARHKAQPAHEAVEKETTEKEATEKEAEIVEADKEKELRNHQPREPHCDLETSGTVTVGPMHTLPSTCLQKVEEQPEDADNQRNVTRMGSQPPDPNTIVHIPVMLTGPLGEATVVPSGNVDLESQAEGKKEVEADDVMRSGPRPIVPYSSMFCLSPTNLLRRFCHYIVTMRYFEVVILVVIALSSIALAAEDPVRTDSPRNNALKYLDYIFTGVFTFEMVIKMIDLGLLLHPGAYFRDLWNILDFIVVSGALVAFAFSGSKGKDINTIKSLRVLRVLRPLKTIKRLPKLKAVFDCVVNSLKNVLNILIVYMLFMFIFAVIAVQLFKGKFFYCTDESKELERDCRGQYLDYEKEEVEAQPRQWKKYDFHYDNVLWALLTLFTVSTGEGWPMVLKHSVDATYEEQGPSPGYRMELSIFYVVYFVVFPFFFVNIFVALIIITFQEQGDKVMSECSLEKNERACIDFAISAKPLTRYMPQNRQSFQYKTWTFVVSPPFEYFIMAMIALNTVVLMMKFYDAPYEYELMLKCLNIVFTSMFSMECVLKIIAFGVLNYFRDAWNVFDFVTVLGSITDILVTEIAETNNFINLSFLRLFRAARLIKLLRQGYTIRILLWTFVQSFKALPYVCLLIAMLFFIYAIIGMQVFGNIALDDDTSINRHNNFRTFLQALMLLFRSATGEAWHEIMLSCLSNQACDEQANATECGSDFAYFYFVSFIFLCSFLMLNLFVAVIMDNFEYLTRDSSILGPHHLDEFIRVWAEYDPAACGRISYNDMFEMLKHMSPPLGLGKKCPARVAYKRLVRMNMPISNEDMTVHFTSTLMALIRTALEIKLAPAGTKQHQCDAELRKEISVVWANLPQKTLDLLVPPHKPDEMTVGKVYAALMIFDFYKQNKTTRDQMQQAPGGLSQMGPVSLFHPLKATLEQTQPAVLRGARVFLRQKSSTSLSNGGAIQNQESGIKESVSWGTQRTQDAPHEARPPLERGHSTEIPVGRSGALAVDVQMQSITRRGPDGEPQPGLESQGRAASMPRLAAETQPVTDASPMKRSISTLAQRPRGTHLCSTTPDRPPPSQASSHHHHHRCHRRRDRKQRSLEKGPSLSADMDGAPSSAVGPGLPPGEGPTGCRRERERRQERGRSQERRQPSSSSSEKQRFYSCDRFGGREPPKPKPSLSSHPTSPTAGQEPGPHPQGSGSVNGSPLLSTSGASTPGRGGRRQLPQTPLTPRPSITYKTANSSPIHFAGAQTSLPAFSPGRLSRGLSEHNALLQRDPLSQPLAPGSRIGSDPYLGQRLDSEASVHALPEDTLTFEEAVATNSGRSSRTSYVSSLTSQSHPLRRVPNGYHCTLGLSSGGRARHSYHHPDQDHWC
Chain of human Cav2.2 (P54289 25-951 partner limits assumed): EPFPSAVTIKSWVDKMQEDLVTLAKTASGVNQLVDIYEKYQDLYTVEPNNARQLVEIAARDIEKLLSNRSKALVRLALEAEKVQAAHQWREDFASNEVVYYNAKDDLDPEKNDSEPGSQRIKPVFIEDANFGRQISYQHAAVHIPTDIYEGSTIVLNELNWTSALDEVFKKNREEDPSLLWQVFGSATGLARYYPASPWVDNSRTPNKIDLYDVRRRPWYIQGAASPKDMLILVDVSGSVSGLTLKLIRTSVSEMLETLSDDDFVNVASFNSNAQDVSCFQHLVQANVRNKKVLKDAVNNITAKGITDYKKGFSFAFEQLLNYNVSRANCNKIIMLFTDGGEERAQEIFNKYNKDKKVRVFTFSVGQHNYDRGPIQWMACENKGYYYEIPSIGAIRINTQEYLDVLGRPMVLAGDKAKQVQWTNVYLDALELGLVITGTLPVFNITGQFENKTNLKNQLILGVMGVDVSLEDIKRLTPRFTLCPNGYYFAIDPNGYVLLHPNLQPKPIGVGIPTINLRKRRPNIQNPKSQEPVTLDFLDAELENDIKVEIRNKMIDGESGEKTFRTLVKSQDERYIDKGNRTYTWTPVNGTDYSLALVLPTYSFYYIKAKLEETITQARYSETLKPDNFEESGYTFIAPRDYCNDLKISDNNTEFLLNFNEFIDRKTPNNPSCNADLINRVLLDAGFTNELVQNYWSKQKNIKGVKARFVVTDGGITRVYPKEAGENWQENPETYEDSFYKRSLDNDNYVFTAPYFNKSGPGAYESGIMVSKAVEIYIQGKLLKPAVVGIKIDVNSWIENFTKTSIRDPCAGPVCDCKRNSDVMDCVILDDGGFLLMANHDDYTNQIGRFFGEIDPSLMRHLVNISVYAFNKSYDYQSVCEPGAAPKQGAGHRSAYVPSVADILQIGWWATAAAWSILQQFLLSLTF
Chain of human Cav2.2 (P54289 952-1103 partner limits assumed): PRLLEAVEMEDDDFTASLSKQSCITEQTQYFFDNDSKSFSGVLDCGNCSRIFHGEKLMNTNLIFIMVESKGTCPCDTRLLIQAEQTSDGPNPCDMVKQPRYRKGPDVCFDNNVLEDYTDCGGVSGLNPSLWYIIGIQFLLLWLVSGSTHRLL
Chain of human Cav2.2 (P54284 whole entry partner): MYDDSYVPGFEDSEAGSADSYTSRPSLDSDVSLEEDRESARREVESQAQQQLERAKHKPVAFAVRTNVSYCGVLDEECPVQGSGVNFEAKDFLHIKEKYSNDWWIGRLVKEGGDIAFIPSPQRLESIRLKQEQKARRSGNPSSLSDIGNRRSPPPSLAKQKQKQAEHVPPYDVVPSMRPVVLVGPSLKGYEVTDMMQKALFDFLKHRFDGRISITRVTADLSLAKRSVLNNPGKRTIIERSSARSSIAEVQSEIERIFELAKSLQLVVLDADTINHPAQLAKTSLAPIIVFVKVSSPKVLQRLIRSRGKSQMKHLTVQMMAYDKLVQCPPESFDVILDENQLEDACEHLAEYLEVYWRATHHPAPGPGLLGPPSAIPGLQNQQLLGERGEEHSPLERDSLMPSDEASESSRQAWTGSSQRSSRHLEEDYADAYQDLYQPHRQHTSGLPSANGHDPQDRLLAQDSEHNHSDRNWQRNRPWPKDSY

This assay has as its target human Cav2.2 (Homo sapiens, UniProt Q00975). As to the kind of experiment: Assessment of calcium channel activity using FLIPR (Ca2+ influx in IMR32 cells). Particulars: IMR32 cells endogenously expressing human Cav2.2; 60 minute pre-incubation; 2 μM nifedipine; depolarized with 80 mM KCl, 5 mM CaCl2. The class given is cell-based. The gist of the method: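 FLIPR measured Ca2+ influx triggered by 80 mM KCl depolarization together with a step to 5 mM external CaCl2. Percent inhibition relative to uninhibited activity was fitted sigmoidally for IC50.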
With `O=C1C(c2ccccc2)CCCN1Cc1nc(-c2ccc(C(F)(F)F)cc2)no1` (centres unmarked) [Example 181, 3-phenyl-1-({3-[4-(trifluoromethyl)phenyl]-1,2,4-oxadiazol-5-yl}methyl)piperidin-2-one], the IC50 (as a rule, the concentration that inhibits the measured activity by half) was 3270 nM.

`O=C1N(Cc2nc(CCc3ccc(Cl)cc3)no2)CCCC1(c1ccccc1)c1ccccc1` [Example 213, 1-({3-[2-(4-chlorophenyl)ethyl]-1,2,4-oxadiazol-5-yl}methyl)-3,3-diphenylpiperidin-2-one]: the IC50 stood at 1600 nM.

Regarding `O=C(CN1CCC(c2ccc(F)cc2)C1=O)N1CCc2ccc(F)cc2C1` (centres unmarked) [Example 255, 1-[2-(7-fluoro-3,4-dihydroisoquinolin-2(1H)-yl)-2-oxoethyl]-3-(4-fluorophenyl)pyrrolidin-2-one], the IC50 came to 9890 nM.

On to `O=C(CN1CCC(c2ccccc2)(c2ccccc2)C1=O)NCC1CCN(Cc2ccccc2)C1` (centres unmarked) [Example 39, N-[(1-benzylpyrrolidin-3-yl)methyl]-2-(2-oxo-3,3-diphenylpyrrolidin-1-yl)acetamide], for which the IC50 was found to be 2600 nM.

For `COc1ccc(C2(c3ccc(OC)cc3)CCCN(CCCN3CCN(Cc4cc(OC)cc(OC)c4)CC3)C2=O)cc1` [Example 131, 1-{3-[4-(3,5-dimethoxybenzyl)piperazin-1-yl]propyl}-3,3-bis(4-methoxyphenyl)piperidin-2-one], the IC50 came out at 2300 nM.

Take `O=C(CN1CCC(c2ccccc2)(c2ccccc2)C1=O)N1CCC(C(O)(c2cccc(C(F)(F)F)c2)c2cccc(C(F)(F)F)c2)CC1` [Example 33, 1-{2-[4-(hydroxy{bis[3-(trifluoromethyl)phenyl]}methyl)piperidin-1-yl]-2-oxoethyl}-3,3-diphenylpyrrolidin-2-one]: the IC50 stood at 7550 nM.

Turning to `N#Cc1ccc(-c2noc(CN3CCC(c4ccc(F)cc4)(c4ccc(F)cc4)C3=O)n2)cc1` [Example 235, 4-(5-{[3,3-bis(4-fluorophenyl)-2-oxopyrrolidin-1-yl]methyl}-1,2,4-oxadiazol-3-yl)benzonitrile], the IC50 is 3180 nM.

As to `O=C(CN1CCCC(c2ccccc2)C1=O)N1Cc2ccc(C(F)(F)F)cc2C1` (centres unmarked) [Example 178, 1-{2-oxo-2-[5-(trifluoromethyl)-1,3-dihydro-2H-isoindol-2-yl]ethyl}-3-phenylpiperidin-2-one], the half-inhibitory concentration (IC50) came to 7730 nM.

Regarding `O=C1N(Cc2nc(-c3ccc4[nH]ncc4c3)no2)CCCC1(c1ccccc1)c1ccccc1` [Example 154, 1-{[3-(1H-indazol-5-yl)-1,2,4-oxadiazol-5-yl]methyl}-3,3-diphenylpiperidin-2-one], the half-maximal inhibitory concentration (IC50) turned out to be 5150 nM.

As to `O=C1CN(CCN2CCC(c3ccccc3)(c3ccccc3)C2=O)CCN1C(c1ccccc1)c1ccccc1` [Example 66, 1-benzhydryl-4-[2-(2-oxo-3,3-diphenylpyrrolidin-1-yl)ethyl]piperazin-2-one], the IC50 came to 1830 nM.

On to `O=C(CN1CCCC(c2ccccc2)(c2ccccc2)C1=O)N1CCCCC1c1ccc(F)cc1` (centres unmarked) [Example 74, 1-{2-[2-(4-fluorophenyl)piperidin-1-yl]-2-oxoethyl}-3,3-diphenylpiperidin-2-one], for which the IC50 amounted to 2680 nM.

On to `N#Cc1ccc(NC(=O)CN2CCC(c3ccccc3)(c3ccccc3)C2=O)nc1` [Example 251, N-(5-cyanopyridin-2-yl)-2-(2-oxo-3,3-diphenylpyrrolidin-1-yl)acetamide], for which the IC50 is 8320 nM.

With `CN(CCCN1CCC(c2ccc(F)cc2)(c2ccc(F)cc2)C1=O)C1Cc2ccccc2C1` [Example 114, 1-{3-[2,3-dihydro-1H-inden-2-yl(methyl)amino]propyl}-3,3-bis(4-fluorophenyl)pyrrolidin-2-one], the half-inhibitory concentration (IC50) was 1530 nM.

Regarding `O=C(CN1CCC(c2ccccc2)(c2ccccc2)C1=O)N[C@@H]1CC[C@H]2CN(Cc3cccc(C(F)(F)F)c3)C[C@H]21` (relative stereo) [Example 57, 2-(2-oxo-3,3-diphenylpyrrolidin-1-yl)-N-{(3aS*,4R*,6aR*)-2-[3-(trifluoromethyl)benzyl]octahydrocyclopenta[c]pyrrol-4-yl}acetamide], the IC50 was 490 nM.

For the compound `O=C(CN1CCC(c2ccccc2)(c2ccccc2)C1=O)N1CCCC(c2ccccc2)(c2ccccc2)C1` [Example 24, 1-[2-(3,3-diphenylpiperidin-1-yl)-2-oxoethyl]-3,3-diphenylpyrrolidin-2-one], the IC50 was found to be 810 nM.

With `COc1cc(CN2CCN(CCN3CCC(c4ccc(F)cc4)(c4ccc(F)cc4)C3=O)CC2)cc(OC)c1` [Example 63, 1-{2-[4-(3,5-dimethoxybenzyl)piperazin-1-yl]ethyl}-3,3-bis(4-fluorophenyl)pyrrolidin-2-one], the IC50 was found to be 1650 nM.

Take `O=C1N(Cc2nc(-c3ccc(C(F)(F)F)nc3)no2)CCC1(c1ccc(F)cc1)c1ccc(F)cc1` [Example 212, 3,3-bis(4-fluorophenyl)-1-({3-[6-(trifluoromethyl)pyridin-3-yl]-1,2,4-oxadiazol-5-yl}methyl)pyrrolidin-2-one]: the IC50 was determined as 2630 nM.

With `O=C(CN1CCCC(c2ccccc2)(c2ccccc2)C1=O)N1CCN(C(c2ccc(F)cc2)c2ccc(F)cc2)CC1` [Example 82, 1-(2-{4-[bis(4-fluorophenyl)methyl]piperazin-1-yl}-2-oxoethyl)-3,3-diphenylpiperidin-2-one], the IC50 was 2360 nM.

Take `O=C(CN1CCCC(c2ccccc2)(c2ccccc2)C1=O)N1CCN(C(=O)OCc2ccccc2)CC1` [Example 182, benzyl 4-[(2-oxo-3,3-diphenylpiperidin-1-yl)acetyl]piperazine-1-carboxylate]: the concentration for half-maximal inhibition (IC50) worked out at 1370 nM.

`O=C(CN1CCCC(c2ccccc2)(c2ccccc2)C1=O)N1CCC(Oc2cccc(C(F)(F)F)c2)CC1` [Example 162, 1-(2-oxo-2-{4-[3-(trifluoromethyl)phenoxy]piperidin-1-yl}ethyl)-3,3-diphenylpiperidin-2-one]: the half-maximal inhibitory concentration (IC50) is 1860 nM.

`O=C(CN1CCC(c2ccc(F)cc2)(c2ccc(F)cc2)C1=O)N1CCC(c2ccc(F)cc2)(c2ccc(F)cc2)C1` [Example 204, 1-{2-[3,3-bis(4-fluorophenyl)pyrrolidin-1-yl]-2-oxoethyl}-3,3-bis(4-fluorophenyl)pyrrolidin-2-one]: the 50% inhibitory concentration (IC50) was determined as 3040 nM.

For the compound `O=C(CN1CCC(c2ccc(F)cc2)(c2ccc(F)cc2)C1=O)N1CCN(Cc2cccc(C(F)(F)F)c2)CC1` [Example 60, 3,3-bis(4-fluorophenyl)-1-(2-oxo-2-{4-[3-(trifluoromethyl)benzyl]piperazin-1-yl}ethyl)pyrrolidin-2-one], the IC50 was determined as 1010 nM.

As to `O=C(CN1CCC(c2ccccc2)(c2ccccc2)C1=O)N1CCN(Cc2ccc(Cl)cc2Cl)CC1` [Example 43, 1-{2-[4-(2,4-dichlorobenzyl)piperazin-1-yl]-2-oxoethyl}-3,3-diphenylpyrrolidin-2-one], the concentration for half-maximal inhibition (IC50) worked out at 520 nM.

Take `COc1ccccc1N1CCN(CCCN2CCCC(c3ccc(F)cc3)(c3ccc(F)cc3)C2=O)CC1` [Example 138, 3,3-bis(4-fluorophenyl)-1-{3-[4-(2-methoxyphenyl)piperazin-1-yl]propyl}piperidin-2-one]: the IC50 came out at 1420 nM.

With `COc1ccc(C2(c3ccc(OC)cc3)CCN(CCNC(=O)c3ccccc3)C2=O)cc1` [Example 112, N-{2-[3,3-bis(4-methoxyphenyl)-2-oxopyrrolidin-1-yl]ethyl}benzamide], the concentration for half-maximal inhibition (IC50) is 10000 nM.

`O=C(CN1CCC(c2ccccc2)(c2ccccc2)C1=O)N1CCc2ccccc2C1` [Example 19, 1-[2-(3,4-dihydroisoquinolin-2(1H)-yl)-2-oxoethyl]-3,3-diphenylpyrrolidin-2-one]: the IC50 worked out at 3310 nM.

As to `O=C(CN1CCC(c2ccccc2)(c2ccccc2)C1=O)Nc1ccc(C(F)(F)F)cn1` [Example 246, 2-(2-oxo-3,3-diphenylpyrrolidin-1-yl)-N-[5-(trifluoromethyl)pyridin-2-yl]acetamide], the half-maximal inhibitory concentration (IC50) amounted to 3770 nM.

In the case of `CC(C)(C)c1ccc(-c2noc(CN3CCC(c4ccccc4)(c4ccccc4)C3=O)n2)cc1` [Example 202, 1-{[3-(4-tert-butylphenyl)-1,2,4-oxadiazol-5-yl]methyl}-3,3-diphenylpyrrolidin-2-one], the concentration for half-maximal inhibition (IC50) was 10400 nM.

For the compound `O=C1N(Cc2nc(-c3ccc(F)cc3)no2)CCC1(c1ccccc1)c1ccccc1` [Example 194, 1-{[3-(4-fluorophenyl)-1,2,4-oxadiazol-5-yl]methyl}-3,3-diphenylpyrrolidin-2-one], the IC50 is 4080 nM.

On to `CC(C)N1CCN(CC(=O)N2CCN(C(c3ccc(F)cc3)c3ccc(F)cc3)CC2)C(=O)C1c1ccccc1` (centres unmarked) [Example 273, 1-(2-(4-(bis(4-fluorophenyl)methyl)piperazin-1-yl)-2-oxoethyl)-4-isopropyl-3-phenylpiperazin-2-one], for which the IC50 worked out at 2480 nM.

As for `COc1ccc(OC2CCN(C(=O)CN3CCCC(c4ccccc4)(c4ccccc4)C3=O)CC2)cc1` [Example 161, 1-{2-[4-(4-methoxyphenoxy)piperidin-1-yl]-2-oxoethyl}-3,3-diphenylpiperidin-2-one], the IC50 stood at 5740 nM.

On to `O=C1N(Cc2nc(-c3ccc(Cl)nc3)no2)CCC1(c1ccccc1)c1ccccc1` [Example 214, 1-{[3-(6-chloropyridin-3-yl)-1,2,4-oxadiazol-5-yl]methyl}-3,3-diphenylpyrrolidin-2-one], for which the IC50 is 2780 nM.

On to `O=C(CN1CCC(c2ccccc2)(c2ccccc2)C1=O)NCc1ccc(C(F)(F)F)cc1` [Example 8, 2-(2-oxo-3,3-diphenylpyrrolidin-1-yl)-N-[4-(trifluoromethyl)benzyl]acetamide], for which the IC50 is 1490 nM.

With `COc1ccc(C2(c3ccc(OC)cc3)CCCN(CCN3CCN(Cc4cc(OC)cc(OC)c4)CC3)C2=O)cc1` [Example 132, 1-{2-[4-(3,5-dimethoxybenzyl)piperazin-1-yl]ethyl}-3,3-bis(4-methoxyphenyl)piperidin-2-one], the 50% inhibitory concentration (IC50) was 2300 nM.

Regarding `CC(C)(C)OC(=O)Nc1ccc(-c2noc(CN3CCC(c4ccccc4)(c4ccccc4)C3=O)n2)cn1` [Example 231, tert-butyl 5-{5-[(2-oxo-3,3-diphenylpyrrolidin-1-yl)methyl]-1,2,4-oxadiazol-3-yl}pyridin-2-ylcarbamate], the IC50 is greater than 30000 nM.
